The values below come from patent publication US6623931B2, “Diagnostic assay for antibiotic tolerance” (priority 2001, dated 2003).

Broadly, the MIC is the least concentration at which growth counts as inhibited.

Holding throughout (type): cell-based
In assay [1] the test system is Streptococcus pneumoniae. Description: oxacillin disc sensitivity test. As to conditions: tolerant clinical isolates. How it is done:
(§1) Characteristics of Tolerant Isolates. The MIC's of the tolerant isolates ranged from 0.1 ug/ml to 0.3 ug/ml vancomycin and all were resistant to penicillin as evidenced by an oxacillin disc sensitivity test. Tolerance was not correlated with serotype. Frequently, tolerant strains were isolated days to weeks after non-tolerant strains in the same child indicating tolerance could arise during carriage in the nasopharynx. Clonal relatedness between the non-tolerant and tolerant strains isolated sequentially from the same child was assessed by pulse-field gel electrophoresis (PFGE) patterns of SmaI digested genomic DNA. […] Thus, tolerant and non-tolerant strains could be paired for comparison. PFGE indicated a possible serotype switch in one child (Child C), while another child (Child E) was colonized by two separate, yet closely related, tolerant strains.

The test system of assay [2] is Streptococcus pneumoniae. Description: lysis by 1% deoxycholate (activation of functional LytA). As to conditions: all tolerant isolates. The text has this: Identification of the Mechanism Contributing to Tolerance. […] Furthermore, all tolerant isolates were lysed by 1% deoxycholate—a detergent that specifically activates functional LytA causing lysis of the bacteria. This eliminated mechanisms of tolerance in the clinical strains that arise from lack of enzyme or loss of amidase activity. Attention thus focused on the only reported mechanism where normal amidase is present: mutation of the vncR/S locus, encoding a two-component sensor regulator system. Western blot analysis confirmed the presence of VncS and VncR in the tolerant clinical isolates.

Assay [3] relates to Streptococcus pneumoniae. Description: viability assay after exposure to vancomycin. The source says: To confirm tolerance, the 27 non-lytic strains were subjected to viability assays. […] This is within ±2 standard deviations (SD) of the killing rate for the tolerant Lyt4-4 strain.
Assay [4] deals with Streptococcus pneumoniae. Put plainly: MIC of tolerant isolates. As to conditions: tolerant clinical isolates. How it is done:
as §1

In assay [5] the test system is Streptococcus pneumoniae. Put plainly: reversal of tolerance by exogenous synthetic Pep27 added with vancomycin. The conditions noted are these: tolerant clinical strains, vancomycin 10×MIC in the absence of peptide. As to the method:
Pep27 Transport by Vex. In laboratory strains, tolerance has been created by loss of function mutations in the death signal Pep27 or its transporter Vex, the loci contiguous with vncS/R. Tolerance in these cases was attributed to lack of Pep27 or lack of Pep27 export into the supernatant. To assess Pep27 in the supernatant, immunoprecipitations were performed using Pep27 antibody. […] Therefore, extracellular transport of the peptide may be defective in tolerant strains leading to the loss of signal for death through VncS. If so, tolerance should be reversed through the addition of exogenous Pep27 to the culture. To test this, tolerant clinical strains were treated with vancomycin at 10×MIC as before but 0.5 mM synthetic Pep27 was added in conjunction with the antibiotic.

For assay [6], the system named is Streptococcus pneumoniae. Put plainly: lysis after exposure to 10×MIC vancomycin (optical density of the culture). As to the method:
Prevalence of vancomycin tolerance in clinical isolates. To determine the prevalence of vancomycin tolerance in Streptococcus pneumoniae in a population of healthy children, 215 nasopharygeal isolates from Vanderbilt University Hospital were screened for lysis after exposure to 10×MIC (minimum inhibitory concentration) vancomycin (5 ug/ml).

Consider penicillin, for which the penicillin susceptibility entry in assay [1] was “resistant”.

deoxycholate: the “lysis of the bacteria” value in assay [2] is “lysed”.

Turning to `CN[C@H](CC(C)C)C(=O)N[C@H]1C(=O)N[C@@H](CC(N)=O)C(=O)N[C@H]2C(=O)N[C@H]3C(=O)N[C@H](C(=O)N[C@H](C(=O)O)c4cc(O)cc(O)c4-c4cc3ccc4O)[C@H](O)c3ccc(c(Cl)c3)Oc3cc2cc(c3O[C@@H]2O[C@H](CO)[C@@H](O)[C@H](O)[C@H]2O[C@H]2C[C@](C)(N)[C@H](O)[C@H](C)O2)Oc2ccc(cc2Cl)[C@H]1O` [vancomycin], the log kill in assay [3] (R6 strain, after 4 hours of exposure to vancomycin) was 5 log. In assay [3] (eight tolerant clinical isolates, after 4 hours of exposure to vancomycin), this compound returned a log killing of less than 3 log. Further, the “viability after antibiotic exposure” value in assay [3] (remaining 19 non-lytic isolates) was “dead after antibiotic exposure”. In addition, the MIC in assay [4] fell in the range of 0.1 to 0.3 µg/mL. The viability diminished in assay [5] worked out at 2 logs. Also, in assay [6] (27 of 215 nasopharyngeal isolates that failed to lyse, after 4 hours, 10×MIC vancomycin (5 ug/ml)), the “optical density of the culture” value is listed as “above 0.15”. Besides, the OD620nm in assay [6] (control R6 strain, after 2 hours @ 10×MIC of vancomycin) is given as 0.02.
